“And” between values parts separate entries of the source, which are not always exact repeats. Equal entries are not always repeated.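 Five compound concentrations were applied to cells in 96-well plates for 48 hours; endpoints were derived by simple linear interpolation of the resulting dose-response curve. GI50: concentration for 50% inhibition of growth.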 The source made the active and inactive calls. No stated cut-off is given here; in the data, active = GI50 up to about 1.1 µM and inactive = higher.
Tests used:
Assay in all cases: inhibition of tumour cell growth, NCI panel, 48 h
NCI/ADR-RES = system: NCI/ADR-RES
SK-OV-3 = system: SK-OV-3
UO-31 = system: UO-31
Malme-3M = system: Malme-3M
ACHN = system: ACHN
KM12 = system: KM12
OVCAR-3 = system: OVCAR-3
SF-539 = system: SF-539
OVCAR-8 = system: OVCAR-8
HOP-62 = system: HOP-62
MDA-MB-231 = system: MDA-MB-231
NCI-H23 = system: NCI-H23
HT-29 = system: HT-29
786-0 = system: 786-0
COLO 205 = system: COLO 205
DU-145 = system: DU-145
M14 = system: M14
PC-3 = system: PC-3
SK-MEL-28 = system: SK-MEL-28
SNB-75 = system: SNB-75

Measured: GI50

CC(C)(CN1CCCCC1)C(=O)CC(SCCS(=O)(=O)O)c1ccc(Cl)c(Cl)c1 (centres undefined)
inactive: NCI/ADR-RES 3.21 µM | SK-OV-3 29.7 µM | UO-31 4.91 µM | Malme-3M 4.1 µM | ACHN 3.29 µM | KM12 5.71 µM | OVCAR-3 2.37 µM | SF-539 2.65 µM | OVCAR-8 2.75 µM | HOP-62 6.47 µM | MDA-MB-231 2.08 µM | NCI-H23 3.72 µM | HT-29 3.08 µM | 786-0 1.86 µM | COLO 205 2.58 µM | DU-145 11.4 µM | M14 1.92 µM | PC-3 4.94 µM

CCNC(=O)c1cc(Cl)ccc1NC(=O)C12CC3CC(CC(C3)C1)C2
inactive: NCI/ADR-RES 47.8 µM | UO-31 22.3 µM | Malme-3M > 100 µM | ACHN 44.1 µM | KM12 27.2 µM | OVCAR-3 36.1 µM | SF-539 > 100 µM | OVCAR-8 34.3 µM | HOP-62 30.1 µM | MDA-MB-231 71.8 µM | NCI-H23 56.8 µM | HT-29 18 µM | 786-0 22.8 µM | COLO 205 31 µM | SK-MEL-28 35.8 µM | DU-145 28.4 µM | M14 31.8 µM | PC-3 32.1 µM

CC1=NN(C(=O)CSc2nc3ccc(I)cc3c(=O)n2Cc2ccccc2)C(=O)C1
inactive: NCI/ADR-RES 20.9 µM | SK-OV-3 29.1 µM | ACHN 28.8 µM | KM12 28.3 µM | OVCAR-3 27.9 µM | SF-539 35.8 µM | OVCAR-8 48.8 µM | HOP-62 39.6 µM | MDA-MB-231 16.9 µM | NCI-H23 16.1 µM | HT-29 34.3 µM | 786-0 36.9 µM | COLO 205 33.5 µM | SK-MEL-28 57.3 µM | DU-145 37.1 µM | M14 31.7 µM | PC-3 17.2 µM | SNB-75 35.3 µM

Oc1ccc(Cl)cc1C1=NC(/N=C\c2ccccc2)=NC(c2ccccc2)C1 (centres undefined)
inactive: NCI/ADR-RES 21.4 µM | SK-OV-3 16.3 µM | UO-31 10.5 µM | KM12 10.5 µM | OVCAR-3 11.4 µM | SF-539 22.8 µM | OVCAR-8 20 µM | HOP-62 25.7 µM | MDA-MB-231 35.6 µM | NCI-H23 3.87 µM | HT-29 24.8 µM | 786-0 19.1 µM | COLO 205 > 100 µM | SK-MEL-28 > 100 µM | DU-145 > 100 µM | M14 > 100 µM | PC-3 > 100 µM | SNB-75 17.5 µM

COC(=O)CC1(O)C(C=C(C)C)C(C(=O)OC)C(=O)C(C(=O)OC)C1C(=O)OC (centres undefined)
inactive: NCI/ADR-RES 38.5 µM | SK-OV-3 > 100 µM | UO-31 > 100 µM | Malme-3M > 100 µM | ACHN > 100 µM | KM12 > 100 µM | OVCAR-3 > 100 µM | SF-539 > 100 µM | OVCAR-8 > 100 µM | HOP-62 > 100 µM | MDA-MB-231 > 100 µM | NCI-H23 > 100 µM | HT-29 > 100 µM | 786-0 > 100 µM | COLO 205 > 100 µM | SK-MEL-28 > 100 µM | DU-145 > 100 µM | M14 > 100 µM | PC-3 > 100 µM

Cc1n[nH]c(=O)n1/N=C/c1cccnc1
inactive: NCI/ADR-RES > 100 µM | SK-OV-3 > 100 µM | UO-31 > 100 µM | Malme-3M > 100 µM | ACHN > 100 µM | KM12 > 100 µM | OVCAR-3 > 100 µM | SF-539 > 100 µM | OVCAR-8 > 100 µM | HOP-62 > 100 µM | MDA-MB-231 > 100 µM | NCI-H23 > 100 µM | HT-29 > 100 µM | 786-0 > 100 µM | COLO 205 > 100 µM | SK-MEL-28 > 100 µM | DU-145 > 100 µM | M14 > 100 µM | PC-3 > 100 µM

CCOP(=O)(/C=C/n1cnc2c(=O)n(C(C)=O)c(N)nc21)OCC
inactive: NCI/ADR-RES > 100 µM | SK-OV-3 > 100 µM | ACHN > 100 µM | KM12 > 100 µM | OVCAR-3 > 100 µM | SF-539 > 100 µM | OVCAR-8 > 100 µM | HOP-62 > 100 µM | MDA-MB-231 > 100 µM | NCI-H23 > 100 µM | HT-29 > 100 µM | 786-0 > 100 µM | COLO 205 > 100 µM | SK-MEL-28 > 100 µM | DU-145 > 100 µM | M14 > 100 µM | PC-3 > 100 µM | SNB-75 > 100 µM

CC1=CC(=O)CC2(C)CCC(C(C)CC(=O)CC(C)C)CC12OO (centres undefined)
inactive: NCI/ADR-RES 24.8 µM and 23.1 µM | UO-31 19.9 µM and 16.2 µM | Malme-3M 29.8 µM and 16.7 µM | ACHN 17.6 µM and 17.1 µM | KM12 15.6 µM and 16.9 µM | SF-539 16.4 µM and 15.2 µM | OVCAR-8 19.2 µM and 27.7 µM | MDA-MB-231 15.1 µM and 18.5 µM | NCI-H23 16.5 µM and 19.9 µM | HT-29 17 µM and 20.7 µM | 786-0 10.1 µM and 13.1 µM | COLO 205 18.8 µM and 14.3 µM | SK-MEL-28 18.5 µM and 15.2 µM | DU-145 18 µM and 16 µM | M14 16.5 µM and 17.9 µM | PC-3 14.3 µM and 15.7 µM

— ChEMBL document CHEMBL1201862, “PubChem BioAssay data set” (2004)
